Assay results from article PMC8765781, “A platform of assays for the discovery of anti-Zika small-molecules with activity in a 3D-bioprinted outer-blood-retina model” (PLoS ONE, 2022).
Like-named read-outs stand apart in the source and are kept apart here.

Experiments:
[1] = test system: ZIKV-RLuc (Cambodian strain FSS13025); test: microbe, parasite or virus in culture; type: cell-based, Zika virus
[2] = Zika virus, Vero, read-out: Log AC50 (M) (converted)

Structure (SMILES) | CC-v2 (curve class classification v2 of the dose response curve) [1] | Efficacy (difference between neutral response and maximum compound response) [1] | Max Resp (difference between neutral response and compound response for highest compound concentration) [1] | AC50 ([1]; Zika virus, Vero) | AC50 [1, 2] | AC50 (Vero cells) | Log AC50 (M) (Vero cells) | AC50 [1] | Log AC50 (M) [1]
COc1cc([C@@H]2c3cc4c(cc3[C@H](O)[C@H]3COC(=O)[C@@H]23)OCO4)cc(OC)c1OC [NCGC00161923-04] | -1.2 | -67.755 | -62.284 | 2.93e-06 M | 2.93e-06 M | 2.93 µM | -5.5327 M |  | 
CCC(=C/[C@H](C)C/C=C/C(C)=C/[C@@H](C)C(=O)[C@@H](C)[C@H](O)[C@@H](C)C/C(C)=C/C(=O)O)/C=C/[C@@H]1OC(=O)C=C[C@@H]1C [NCGC00162440-02] | -1.2 | -71.611 | -66.361 | 4.76e-09 M | 4.76e-09 M | 0.00476 µM | -8.3224 M |  | 
CCCCCCCCOc1ccccc1C(=O)Nc1ccc(C(=O)OCC[N+](C)(CC)CC)cc1.[Br-] [NCGC00163507-03] | -2.4 | -66.096 | -65.496 | 2.08e-05 M | 2.08e-05 M | 20.8 µM | -4.6827 M |  | 
CS[C@H]1SC[C@@H]2C(=O)N(C)[C@H](C(C)C)C(=O)OC[C@H](NC(=O)c3cnc4ccccc4n3)C(=O)N[C@H](C)C(=O)N(C)[C@H]1C(=O)N(C)[C@H](C(C)C)C(=O)OC[C@H](NC(=O)c1cnc3ccccc3n1)C(=O)N[C@H](C)C(=O)N2C [NCGC00163548-01] | -1.1 | -94.296 | -94.115 | 1.82e-06 M | 1.82e-06 M | 1.82 µM | -5.7408 M |  | 
CC(=O)O[C@H]1C(=O)[C@@]2(C)[C@H]([C@H](OC(=O)c3ccccc3)[C@]3(O)C[C@H](OC(=O)[C@H](O)[C@@H](NC(=O)c4ccccc4)c4ccccc4)C(C)=C1C3(C)C)[C@]1(OC(C)=O)CO[C@@H]1C[C@@H]2O [NCGC00164367-10] | -1.2 | -44.84 | -48.24 | 1.39e-07 M | 1.39e-07 M | 0.139 µM | -6.8582 M |  | 
CCN(CC)CCOc1ccc(C(=C(Cl)c2ccccc2)c2ccccc2)cc1 [NCGC00164385-05] | -2.1 | -102.171 | -98.776 | 2.33e-05 M | 2.33e-05 M | 23.3 µM | -4.6327 M |  | 
C[C@@H]1C[C@H]2C3CCC4=CC(=O)C=C[C@@]4(C)[C@@]3(Cl)[C@@H](O)CC2(C)[C@@]1(OC(=O)c1ccco1)C(=O)CCl (some centres unmarked) [NCGC00164596-01] | -1.1 | -109.905 | -100.212 | 1.04e-05 M | 1.04e-05 M | 10.4 µM | -4.9827 M |  | 
CCN(CC)CCNC(=O)c1c(C)[nH]c(/C=C2\C(=O)Nc3ccc(F)cc32)c1C [NCGC00164631-04] | -2.1 | -103.003 | -99.557 | 1.17e-05 M | 1.17e-05 M | 11.7 µM |  |  | 
O=c1[nH]c2ccccc2n1C1CCN(Cc2ccc(-c3nc4cc5nc[nH]c5cc4nc3-c3ccccc3)cc2)CC1 [NCGC00165727-01] | -2.1 | -80.197 | -82.143 | 1.65e-05 M | 1.65e-05 M | 16.5 µM | -4.7827 M |  | 
CN(C)C1CCN(CCCOc2ccc(-c3ccc(C#N)cc3)cc2)C1 (centres unmarked) [NCGC00165730-02] | -3 | -68.814 | -57.023 | 3.69e-05 M | 3.69e-05 M | 36.9 µM | -4.4327 M |  | 
COc1cc(C(C)C)c2c(c1)[S+](=O)([O-])N(COc1cc(=O)n3cccc(OCCN4CCCCC4)c3n1)C2=O [NCGC00167751-03] | -2.1 | -105.384 | -99.738 | 2.33e-05 M | 2.33e-05 M | 23.3 µM | -4.6327 M |  | 
O=c1cc(-c2ccc(O)c(O)c2)oc2c(C3O[C@H](CO)[C@H](O)[C@H](O)[C@H]3O)c(O)cc(O)c12 (some centres unmarked) [NCGC00168934-02] | -2.1 | -106.691 | -100.564 | 1.85e-05 M | 1.85e-05 M | 18.5 µM | -4.7327 M |  | 
C/C=C(\C)C(=O)O[C@H]1CC2C(=C1C)[C@H]1OC(=O)[C@](C)(O)[C@]1(O)[C@H](OC(=O)CCC)C[C@@]2(C)OC(C)=O (some centres unmarked) [NCGC00169033-03] | -1.1 | -98.201 | -99.812 | 2.29e-06 M | 2.29e-06 M |  | -5.6408 M |  | 
CCCCC/C=C/C(=O)CCc1ccc(O)c(OC)c1 [NCGC00169591-02] | -2.1 | -87.809 | -86.687 | 1.85e-05 M | 1.85e-05 M | 18.5 µM | -4.7327 M |  | 
CCCCN(CCCC)CCC(O)c1cc2c(Cl)cc(Cl)cc2c2cc(C(F)(F)F)ccc12 (centres unmarked) [NCGC00179250-04] | -2.2 | -95.793 | -79.925 | 2.93e-05 M | 2.93e-05 M | 29.3 µM | -4.5327 M |  | 
C[C@@H]1C[C@H]2[C@@H]3CCC4=CC(=O)C=C[C@]4(C)[C@@]3(Cl)[C@@H](O)C[C@]2(C)[C@@]1(OC(=O)c1ccco1)C(=O)CCl [NCGC00179578-03] | -2.1 | -100.838 | -97.726 | 2.33e-05 M | 2.33e-05 M | 23.3 µM | -4.6327 M |  | 
O=C(/C=C/c1ccccc1)CC(O)CCc1ccccc1 (centres unmarked) [NCGC00180705-02] | -2.2 | -46.506 | -73.055 | 2.33e-05 M | 2.33e-05 M | 23.3 µM | -4.6327 M |  | 
CC1(C)CCC(C)(C)c2cc(NC(=O)c3ccc(C(=O)O)cc3)ccc21 [NCGC00181111-01] | -3 | -105.549 | -80.478 | 3.69e-05 M | 3.69e-05 M | 36.9 µM | -4.4327 M |  | 
CC1(C)CCC(C)(C)c2cc(NC(=O)c3ccc(C(=O)O)cc3)ccc21 [NCGC00181111-02] | -2.1 | -104.922 | -87.275 |  |  | 36.9 µM | -4.4327 M | 3.69e-05 M | -4.4327
